ChEMBL document CHEMBL1909046, “DrugMatrix in vitro pharmacology data”

Columns and labels:
[1] = DRUGMATRIX: Phosphodiesterase PDE4 enzyme inhibition (substrate: [3H]cAMP + cAMP); conditions: u-937; Not Active = under 50% inhibition at 10 µM
[2] = molecular target: 5-hydroxytryptamine receptor 2B (Homo sapiens, UniProt P41595); assay type: cell membranes, CHO-K1, Membrane; conditions: cho-k1; further: in other assays of this panel Not Active means under 50% inhibition at 10 µM
[3] = molecular target: Sodium-dependent dopamine transporter (Homo sapiens, UniProt Q01959); test: DRUGMATRIX: Dopamine Transporter radioligand binding (ligand: [125I] RTI-55); assay type: cell membranes, CHO-K1, Membrane; conditions: cho-k1; Not Active = under 50% inhibition at 10 µM
Sequence of Sodium-dependent dopamine transporter (Q01959 whole entry): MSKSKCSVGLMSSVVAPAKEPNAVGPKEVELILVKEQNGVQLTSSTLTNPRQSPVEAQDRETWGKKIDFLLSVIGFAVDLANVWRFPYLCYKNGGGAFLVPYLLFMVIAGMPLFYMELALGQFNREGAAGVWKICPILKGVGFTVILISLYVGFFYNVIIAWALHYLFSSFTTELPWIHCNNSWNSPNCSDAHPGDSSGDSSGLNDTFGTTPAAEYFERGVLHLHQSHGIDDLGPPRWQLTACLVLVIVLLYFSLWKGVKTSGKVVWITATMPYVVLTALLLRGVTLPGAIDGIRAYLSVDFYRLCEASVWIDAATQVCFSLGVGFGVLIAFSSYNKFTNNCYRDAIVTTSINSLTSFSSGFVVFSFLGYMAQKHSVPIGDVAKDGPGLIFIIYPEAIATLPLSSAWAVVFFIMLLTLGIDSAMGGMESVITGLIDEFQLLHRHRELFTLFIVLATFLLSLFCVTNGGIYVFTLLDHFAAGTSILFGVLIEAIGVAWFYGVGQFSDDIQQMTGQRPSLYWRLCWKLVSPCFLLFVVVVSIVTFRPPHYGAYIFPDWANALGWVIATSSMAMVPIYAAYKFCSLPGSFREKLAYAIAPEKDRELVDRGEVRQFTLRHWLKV

[4] = molecular target: T1, Adenosine receptor A3 (Homo sapiens, UniProt P0DMS8); assay type: cell membranes, CHO-K1, Membrane; conditions: cho-k1;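 further: radioligand binding assay with AB-MECA serving as the labeled ligand; in other assays of this panel Not Active means under 50% inhibition at 10 µM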
T1 sequence (P0DMS8 whole entry): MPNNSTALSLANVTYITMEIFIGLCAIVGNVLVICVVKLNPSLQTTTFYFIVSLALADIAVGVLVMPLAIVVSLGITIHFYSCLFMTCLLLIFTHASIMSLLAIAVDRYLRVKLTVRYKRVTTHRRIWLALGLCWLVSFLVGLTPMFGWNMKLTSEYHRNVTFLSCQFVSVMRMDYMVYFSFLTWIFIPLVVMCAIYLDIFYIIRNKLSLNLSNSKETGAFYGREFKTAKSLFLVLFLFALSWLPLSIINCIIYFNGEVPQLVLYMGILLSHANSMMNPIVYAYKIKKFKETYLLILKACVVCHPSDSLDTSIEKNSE

[5] = DRUGMATRIX: GABAA, Chloride Channel, TBOB radioligand binding (ligand: [3H] TBOB); assay type: cell membranes, Rattus norvegicus, Wistar, Cerebral cortex, Membrane; conditions: Not Active = under 50% inhibition at 10 µM
[6] = DRUGMATRIX: Platelet-Derived Growth Factor (PDGF) radioligand binding (ligand: [125I] PDGF); assay type: cell-based; conditions: nih3t3; Not Active = under 50% inhibition at 10 µM

Sequence of 5-hydroxytryptamine receptor 2B (P41595 whole entry): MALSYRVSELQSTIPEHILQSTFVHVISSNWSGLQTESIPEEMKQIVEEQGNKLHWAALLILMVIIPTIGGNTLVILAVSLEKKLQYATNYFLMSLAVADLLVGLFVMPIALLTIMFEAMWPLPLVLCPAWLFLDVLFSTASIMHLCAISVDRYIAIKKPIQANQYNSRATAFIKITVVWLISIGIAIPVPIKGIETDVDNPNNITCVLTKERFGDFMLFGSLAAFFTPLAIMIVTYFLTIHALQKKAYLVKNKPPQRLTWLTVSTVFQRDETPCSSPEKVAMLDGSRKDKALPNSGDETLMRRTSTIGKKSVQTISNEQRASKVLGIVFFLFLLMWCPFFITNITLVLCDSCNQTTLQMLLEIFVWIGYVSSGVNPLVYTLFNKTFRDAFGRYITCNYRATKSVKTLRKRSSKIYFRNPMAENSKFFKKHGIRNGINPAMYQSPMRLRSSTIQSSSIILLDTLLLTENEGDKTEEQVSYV

CC(C(=O)O)c1ccc(CC2CCCC2=O)cc1 (stereo unspecified) [LOXOPROFEN]
Not Active: IC50 [1] | Ki [1] | IC50 [2] | IC50 [3] | IC50 [4] | IC50 [5] | Ki [5] | IC50 [6] | Ki [6]

Cc1cccc(Nc2ccccc2C(=O)O)c1C [MEFENAMIC ACID]
Not Active: IC50 [1] | Ki [1] | IC50 [2] | IC50 [3] | IC50 [4] | IC50 [5] | Ki [5] | IC50 [6] | Ki [6]

CC(=O)O[C@]1(C(C)=O)CC[C@H]2[C@@H]3C=C(C)C4=CC(=O)CC[C@]4(C)[C@H]3CC[C@@]21C [MEGESTROL ACETATE]
Not Active: IC50 [1] | Ki [1] | IC50 [2] | IC50 [3] | IC50 [4] | IC50 [5] | Ki [5] | IC50 [6] | Ki [6]

COc1ccccc1OCC(O)COC(N)=O (stereo unspecified) [METHOCARBAMOL]
Not Active: IC50 [1] | Ki [1] | IC50 [2] | IC50 [3] | IC50 [4] | IC50 [5] | Ki [5] | IC50 [6] | Ki [6]

CN(Cc1cnc2nc(N)nc(N)c2n1)c1ccc(C(=O)N[C@@H](CCC(=O)O)C(=O)O)cc1 [METHOTREXATE]
Not Active: IC50 [1] | Ki [1] | IC50 [2] | IC50 [3] | IC50 [4] | IC50 [5] | Ki [5] | IC50 [6] | Ki [6]

COC(=O)c1ccccc1O [METHYL SALICYLATE]
Not Active: IC50 [1] | Ki [1] | IC50 [2] | IC50 [3] | IC50 [4] | IC50 [5] | Ki [5] | IC50 [6] | Ki [6]

COc1ccc2cc(CCC(C)=O)ccc2c1 [NABUMETONE]
Not Active: IC50 [1] | Ki [1] | IC50 [2] | IC50 [3] | IC50 [4] | IC50 [5] | Ki [5] | IC50 [6] | Ki [6]

O=C(O)c1cccnc1 [NIACIN]
Not Active: IC50 [1] | Ki [1] | IC50 [2] | IC50 [3] | IC50 [4] | IC50 [5] | Ki [5] | IC50 [6] | Ki [6]

CNC(=C[N+](=O)[O-])NCCSCc1csc(CN(C)C)n1 [NIZATIDINE]
Not Active: IC50 [1] | Ki [1] | IC50 [2] | IC50 [3] | IC50 [4] | IC50 [5] | Ki [5] | IC50 [6] | Ki [6]
